# Laboratory results taken from US11673910B2, “Macrolides with modified desosamine sugars and uses thereof” (Zikani Therapeutics, Inc., priority 2017, dated 2023).
# Tests used:
# Assay type in all cases: cell-based
# E. coli strain MP-4 = assay: Broth dilution MIC determination (CLSI) against E. coli strain MP-4; details: Escherichia coli, MP4
# Experimental: (§1) Minimum inhibitory concentrations (MICs) for macrolides described herein were determined for E. coli strain MP-4, K. pneumoniae strain MP-548, P. aeruginosa strain MP-3, A. baumannii strain MP-15, and S. aureus strain MP-12 using similar test procedures as published in US Pat. Pub. No. 2017/0305953. MIC data is represented as “+++” for values less than or equal to 4 mg/L, “++” for values of greater than or equal to 8 mg/L and less than 32 mg/L, and “+” for values of 32 mg/L or greater. ND indicates no data for a particular compound. CLSI standard procedures for broth dilution MIC determination were used.
# [1] = test system: K. pneumoniae strain MP-548; assay: Broth dilution MIC determination (CLSI) against K. pneumoniae strain MP-548; details: Klebsiella pneumoniae, MP548
# Experimental: as §1
# [2] = test system: P. aeruginosa strain MP-3; assay: Broth dilution MIC determination (CLSI) against P. aeruginosa strain MP-3; details: Pseudomonas aeruginosa, MP3
# Experimental: as §1
# [3] = test system: A. baumannii strain MP-15; assay: Broth dilution MIC determination (CLSI) against A. baumannii strain MP-15; details: Acinetobacter baumannii, MP15
# Experimental: as §1
# S. aureus strain MP-12 = assay: Broth dilution MIC determination (CLSI) against S. aureus strain MP-12; details: for MIC: Staphylococcus aureus, MP12, strain MP-12; for MIC against S. aureus (MP-12): strain MP-12
# Experimental: as §1
Compound,MIC (E. coli strain MP-4),MIC [1],MIC [2],MIC [3],MIC (S. aureus strain MP-12),MIC against S. aureus (MP-12) (S. aureus strain MP-12)
"CO[C@]1(C)C[C@@H](C)CN[C@H](C)[C@H]2NC(=O)O[C@]2(C)[C@@H](C)OC(=O)C(C)C(=O)[C@H](C)[C@H]1OC1OC(CNCC2CC2)CC(N(C)C)C1O (some centres unmarked) [Compound 148, 3-Descladinosyl-3-oxo-6-O-methyl-N9a-desmethyl-11,12-dideoxy-12,11-(oxycarbonylimino)-6′-cyclopropylmethylamino-13-methyl Azithromycin]",≥ 32 µg/mL,≥ 32 µg/mL,≥ 32 µg/mL,≥ 32 µg/mL,≥ 32 µg/mL,–
"CC[C@H]1OC(=O)C(C)C(=O)[C@H](C)[C@@H](OC2OC(CNCC(=O)N(C)C)CC(N(C)C)C2O)[C@](C)(OC)C[C@@H](C)CN[C@H](C)[C@H]2NC(=O)O[C@@]21C (some centres unmarked) [Compound 117, 3-Descladinosyl-3-oxo-6-O-methyl-N9a-desmethyl-11,12-dideoxy-12,11-(oxycarbonylimino)-6′-(N—(N,N-dimethylacetamidyl)-amino) Azithromycin]",≥ 32 µg/mL,≥ 32 µg/mL,≥ 32 µg/mL,≥ 32 µg/mL,≥ 32 µg/mL,–
"CC[C@H]1OC(=O)C(C)C(=O)[C@H](C)[C@@H](OC2OC(CN[C@@H]3C[C@H]3C)CC(N(C)C)C2O)[C@](C)(OC)C[C@@H](C)CN[C@H](C)[C@H]2NC(=O)O[C@@]21C (some centres unmarked) [Compound 134, 3-Descladinosyl-3-oxo-6-O-methyl-N9a-desmethyl-11,12-dideoxy-12,11-(oxycarbonylimino)-6′-((1″R,2″R)-2″-methylcyclopropyl)amino Azithromycin]",≤ 4 µg/mL,≤ 4 µg/mL,≥ 32 µg/mL,8 to 32 µg/mL,≥ 32 µg/mL,–
"CC[C@H]1OC(=O)C(C)C(=O)[C@H](C)[C@@H](OC2OC(CN(C)C3CCC3)CC(N(C)C)C2O)[C@](C)(OC)C[C@@H](C)CN[C@H](C)[C@H]2NC(=O)O[C@@]21C (some centres unmarked) [Compound 150, 3-Descladinosyl-3-oxo-6-O-methyl-N9a-desmethyl-11,12-dideoxy-12,11-(oxycarbonylimino)-6′-methylcyclobutylamino Azithromycin]",8 to 32 µg/mL,≥ 32 µg/mL,≥ 32 µg/mL,≥ 32 µg/mL,≥ 32 µg/mL,–
CC[C@H]1OC(=O)C(C)C(=O)[C@H](C)[C@@H](O[C@@H]2OC(CNCc3ccc(C(F)(F)F)cc3)CC(N(C)C)C2O)[C@](C)(OC)C[C@@H](C)CN[C@H](C)[C@H]2NC(=O)O[C@@]21C (some centres unmarked) [Compound 35],≤ 4 µg/mL,≥ 32 µg/mL,≥ 32 µg/mL,8 to 32 µg/mL,≥ 32 µg/mL,–
"CC[C@H]1OC(=O)C(C)C(=O)[C@H](C)[C@@H](OC2OC(CNCCN(C)C)CC(N(C)C)C2O)[C@](C)(OC)C[C@@H](C)CN[C@H](C)[C@H]2NC(=O)O[C@@]21C (some centres unmarked) [Compound 130, 3-Descladinosyl-3-oxo-6-O-methyl-N9a-desmethyl-11,12-dideoxy-12,11-(oxycarbonylimino)-6′-[(2-dimethylamino)ethylamino]Azithromycin]",≥ 32 µg/mL,≥ 32 µg/mL,≥ 32 µg/mL,≥ 32 µg/mL,≥ 32 µg/mL,–
"CC[C@H]1OC(=O)C(C)C(=O)[C@H](C)[C@@H](OC2OC(CNC3CC3)CC(N(C)C)C2O)[C@](C)(OC)C[C@@H](C)C(=O)N[C@H](C)[C@H]2NC(=O)O[C@@]21C (some centres unmarked) [Compound 189, 3-Descladinosyl-3-oxo-6-O-methyl-8-oxo-N9a-desmethyl-11,12-dideoxy-12,11-(oxycarbonylimino)-6′-cyclopropylamino Azithromycin]",≥ 32 µg/mL,≥ 32 µg/mL,≥ 32 µg/mL,≥ 32 µg/mL,≥ 32 µg/mL,–
CC[C@H]1OC(=O)C(C)C(=O)[C@H](C)[C@@H](O[C@@H]2OC(CNc3ccccn3)CC(N(C)C)C2O)[C@](C)(OC)C[C@@H](C)CN[C@H](C)[C@H]2NC(=O)O[C@@]21C (some centres unmarked) [Compound 51],≤ 4 µg/mL,8 to 32 µg/mL,≥ 32 µg/mL,≥ 32 µg/mL,≥ 32 µg/mL,–
CCCCCCCCCCNCC1CC(N(C)C)C(O)[C@H](O[C@@H]2[C@@H](C)C(=O)C(C)C(=O)O[C@H](CC)[C@@]3(C)OC(=O)N[C@@H]3[C@@H](C)NC[C@H](C)C[C@@]2(C)OC)O1 (some centres unmarked) [Compound 55],8 to 32 µg/mL,≥ 32 µg/mL,≥ 32 µg/mL,≥ 32 µg/mL,≥ 32 µg/mL,–
CC[C@H]1OC(=O)C(C)C(=O)[C@H](C)[C@@H](O[C@@H]2OC(CN[C@@H](C)c3ccc(F)cc3)CC(N(C)C)C2O)[C@](C)(OC)C[C@@H](C)CN[C@H](C)[C@H]2NC(=O)O[C@@]21C (some centres unmarked) [Compound 32],≤ 4 µg/mL,≥ 32 µg/mL,≥ 32 µg/mL,≥ 32 µg/mL,≥ 32 µg/mL,–
"CC[C@H]1OC(=O)C(C)C(=O)[C@H](C)[C@@H](OC2OC(C(=O)N(C)C)CC(N(C)C)C2O)[C@](C)(OC)C[C@@H](C)CN[C@H](C)[C@H]2NC(=O)O[C@@]21C (some centres unmarked) [Compound 167, 3-Descladinosyl-3-oxo-6-O-methyl-N9a-desmethyl-11,12-dideoxy-12,11-(oxycarbonylimino)-5′-desmethyl-5′-(N,N-dimethylcarboxamido) Azithromycin]",≥ 32 µg/mL,≥ 32 µg/mL,≥ 32 µg/mL,≥ 32 µg/mL,≥ 32 µg/mL,–
"CC[C@H]1OC(=O)C(C)(C)C(=O)[C@H](C)[C@@H](O[C@@H]2O[C@H](CNC3CC3)CC(N(C)C)[C@H]2O)[C@](C)(OC)C[C@@H](C)CN(C)[C@H](C)[C@H]2NC(=O)O[C@@]21C (some centres unmarked) [Compound 190, 2-Methyl-3-descladinosyl-3-oxo-6-O-methyl-N9a-desmethyl-11,12-dideoxy-12,11-(oxycarbonylimino)-6′-cylcopropylamino Azithromycin]",≥ 32 µg/mL,≥ 32 µg/mL,≥ 32 µg/mL,≥ 32 µg/mL,≥ 32 µg/mL,–
CC[C@H]1OC(=O)C(C)C(=O)[C@H](C)[C@@H](O[C@@H]2OC(CN[C@H](C)c3ccc(F)cc3)CC(N(C)C)C2O)[C@](C)(OC)C[C@@H](C)CN[C@H](C)[C@H]2NC(=O)O[C@@]21C (some centres unmarked) [Compound 33],≤ 4 µg/mL,≥ 32 µg/mL,≥ 32 µg/mL,≥ 32 µg/mL,≥ 32 µg/mL,–
"CC[C@H]1OC(=O)C(C)C(=O)[C@H](C)[C@@H](OC2OC(CNCC(F)(F)F)CC(N(C)C)C2O)[C@](C)(OC)C[C@@H](C)CN[C@H](C)[C@H]2NC(=O)O[C@@]21C (some centres unmarked) [Compound 112, 3-Descladinosyl-3-oxo-6-O-methyl-N9a-desmethyl-11,12-dideoxy-12,11-(oxycarbonylimino)-6′-(2-trifluoroethylamino) Azithromycin]",≤ 4 µg/mL,8 to 32 µg/mL,≥ 32 µg/mL,8 to 32 µg/mL,≤ 4 µg/mL,–
"CC[C@H]1OC(=O)C(C)C(=O)[C@H](C)[C@@H](OC2OC(CNCC(F)F)CC(N(C)C)C2O)[C@](C)(OC)C[C@@H](C)CN[C@H](C)[C@H]2NC(=O)O[C@@]21C (some centres unmarked) [Compound 136, 3-Descladinosyl-3-oxo-6-O-methyl-N9a-desmethyl-11,12-dideoxy-12,11-(oxycarbonylimino)-6′-difluoroethylamino Azithromycin]",≤ 4 µg/mL,8 to 32 µg/mL,≥ 32 µg/mL,≥ 32 µg/mL,8 to 32 µg/mL,–
"3-Descladinosyl-3-oxo-6-O-methyl-N9a-desmethyl-11,12-dideoxy-12,11-(oxycarbonylimino)-6,11-(Z-2-butenyl)-6′-cyclopropylamino azithromycin [Compound 230]",–,–,–,–,–,+ (values of 32 mg/L or greater)
CCC1CO[C@@]2(C)C[C@@H](C)CN[C@H](C)[C@H]3NC(=O)O[C@]3(C)[C@@H](CC)OC(=O)[C@@]1(C)C(=O)[C@H](C)[C@H]2OC1OC(C)CC(N(C)C)C1O (some centres unmarked) [Compound 225],–,–,–,–,≥ 32 µg/mL,–
"CC[C@H]1OC(=O)C(C)C(=O)[C@H](C)[C@@H](OC2OC(CNCC3CC3)CC(N(C)C)C2O)[C@](C)(OC)C[C@@H](C)CN[C@H](C)[C@H]2NC(=O)O[C@@]21C (some centres unmarked) [Compound 119, 3-Descladinosyl-3-oxo-6-O-methyl-N9a-desmethyl-11,12-dideoxy-12,11-(oxycarbonylimino)-6′-(cyclopropylmethylamino) Azithromycin]",≤ 4 µg/mL,8 to 32 µg/mL,–,≥ 32 µg/mL,≥ 32 µg/mL,–
CC[C@H]1OC(=O)[C@]2(C)CCOC(C)(C[C@@H](C)CN[C@H](C)[C@H]3NC(=O)O[C@@]31C)[C@H](O[C@@H]1O[C@H](CNC34CC(C3)C4)C[C@H](N(C)C)[C@H]1O)[C@@H](C)C2=O [Compound 205],–,–,–,–,–,+ (values of 32 mg/L or greater)
CC[C@H]1OC(=O)[C@]2(C)CCOC(C)(C[C@@H](C)CN[C@H](C)[C@H]3NC(=O)O[C@@]31C)[C@H](O[C@@H]1O[C@H](CNCC(F)(F)F)C[C@H](N(C)C)[C@H]1O)[C@@H](C)C2=O [Compound 207],–,–,–,–,≥ 32 µg/mL,–
CC[C@H]1OC(=O)[C@@]2(C)CCOC(C)(C[C@@H](C)CN(CC(C)C)[C@H](C)[C@H]3NC(=O)O[C@@]31C)[C@H](O[C@@H]1OC(C)CC(N(C)C)C1O)[C@@H](C)C2=O (some centres unmarked) [Compound 222],–,–,–,–,8 to 32 µg/mL,–
CC[C@H]1OC(=O)[C@]2(C)CCO[C@](C)(C[C@@H](C)CN[C@H](C)[C@H]3NC(=O)O[C@@]31C)[C@H](O[C@@H]1O[C@H](CNC3CC3)C[C@H](N(C)C)[C@H]1O)[C@@H](C)C2=O [Compound 203],–,–,≥ 32 µg/mL,–,≥ 32 µg/mL,–
